# Target: T1, Protein ENL (Homo sapiens, UniProt Q03111)
# T1 sequence (Q03111 whole entry): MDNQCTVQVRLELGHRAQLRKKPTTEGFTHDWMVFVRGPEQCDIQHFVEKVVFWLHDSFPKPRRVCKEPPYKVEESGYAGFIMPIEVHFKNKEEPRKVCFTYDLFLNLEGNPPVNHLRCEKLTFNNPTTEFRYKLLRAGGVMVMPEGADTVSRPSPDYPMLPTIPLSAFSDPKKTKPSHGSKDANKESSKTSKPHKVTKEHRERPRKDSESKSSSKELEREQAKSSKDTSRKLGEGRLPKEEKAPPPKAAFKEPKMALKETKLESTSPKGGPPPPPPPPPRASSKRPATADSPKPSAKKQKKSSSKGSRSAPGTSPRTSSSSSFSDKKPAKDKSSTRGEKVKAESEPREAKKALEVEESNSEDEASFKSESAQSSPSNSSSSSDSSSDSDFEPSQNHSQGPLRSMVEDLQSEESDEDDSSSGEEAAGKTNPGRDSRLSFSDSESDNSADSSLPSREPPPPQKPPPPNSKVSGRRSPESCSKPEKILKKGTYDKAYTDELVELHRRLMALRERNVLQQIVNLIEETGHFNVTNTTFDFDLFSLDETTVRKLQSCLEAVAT
# Assay: FRET Assay
# Method: Low control (LC) wells received 5 μL of assay buffer instead of ENL protein. […] The response at each compound concentration minus the LC value was converted to percent inhibition of the vehicle control group response (HC-LC).
row,IC50 [nM],SMILES
1,56,"CN1CCC[C@@H]1c1cc2cnc(NC(=O)c3ccc4c(c3)nnn4-c3ccncc3)cc2[nH]1 [US20250136592, Example 85]"
2,18,"Cc1nccc2cc(C(=O)Nc3cc4[nH]c([C@H]5CCCCN5C)cc4cn3)ccc12 [US20250136592, Example 80]"
3,158,"CN1CCC[C@@H]1c1nc2cc(NC(=O)c3ccc4c(-c5ccncc5)noc4c3)ccc2[nH]1 [US20250136592, Example 13]"
4,98,"CN1CCC[C@@H]1c1nc2ccc(NC(=O)c3ccc4c(C5CC5)nn(C)c4c3)cc2[nH]1 [US20250136592, Example 10]"

# Source: BindingDB's records for patent US20250136592 (Bridge Medicines, 2025)
